# Key:
# [1] = antibacterial activity (minimum inhibitory concentration, MIC); details: compared with the R-(+)- and RS-(±)- acids
# [2] = hygroscopicity (exposure or storage at relative humidity, gravimetric); details: on exposure at a relative humidity of 41%
Compound,antimicrobial activity [1],hygroscopicity [2]
C[C@H]1CCc2c(N3CCC(O)CC3)c(F)cc3c(=O)c(C(=O)O)cn1c23,more potent,
"S-(-)-9-fluoro-6,7-dihydro-8-(4-hydroxypiperidin-1-yl)-5-methyl-1-oxo-1 H,5H-benzo[i,j] quinolizine-2-carboxylic acid, L-arginine salt 0.25 hydrate",,highly hygroscopic and turn into syrups
"S-(-)-9-fluoro-6,7-dihydro-8-(4-hydroxypiperin-1-yl)-5-methyl-1-oxo-1H,5H-benzo[i,j] quinolizine-2-carboxylic acid, L-arginine salt, 0.75 hydrate",,highly hygroscopic and turn into syrups

# Source: EP1918289A2, “Crystalline fluoroquinolone arginine salt form” (Wockhardt Limited, priority 2002, dated 2005)
